Laboratory results: patent EP2979694B1, “Dimercaptosuccinic acid for the treatment of multidrug resistant bacterial infections” (priority 2014, dated 2016)

Columns and labels:
[1] = tested on: E. coli TOP10 pCR2.1-(PNDM-1-blaNDM-1-bleMBL); test: MIC of imipenem, broth microdilution in zinc-complemented M9CA minimum medium; type: cell-based
Excerpt: (§1) Inhibitory properties of DMSA and EDTA were also compared in-vitro by UV spectrophotometry using purified NDM-1 protein and carbapenems as substrates. E. coli TOP10 pCR2.1-(PNDM-1-blaNDM-1-bleMBL), expressing the blaNDM-1 gene with its original promoter (PNDM-1) cloned into a pTOPO multicopy plasmid and expressed in E. coli TOP10 reference strain (Dortet et al. 2012) was used for preliminary assays in order to determine the most efficient of DMSA being active against NDM producers.
MICs of imipenem was determined for E. coli TOP10 pCR2.1-(PNDM-1-blaNDM-1-bleMBL) in the presence of 0, 0.01, 0.1 or 1 mg/ml of Ca-EDTA or DMSA by using the broth microdilution method in zinc-complemented M9CA minimum medium (SD7025, Euromedex, France). M9CA minimal medium was used preferably to the standard Mueller Hinton broth in order to determine precisely the concentration of zinc in broth (ZnSO4, Sigma Aldrich, France, 5µg/ml (final concentration).
(§2) A 100 mM DMSA stock solution (Sigma Aldrich, France) (pH 5.0) was prepared in 0.2 M NaOH as recommended (Maiorino et al. 1990) and pH was neutralized to pH 7.0 with NaHCO3 Na2Ca-EDTA (Sigma Aldrich, France) dissolved in water.

NDM-1 [2] = molecular target: T1, NDM-1 (Klebsiella pneumoniae, UniProt C7C422); test: Inhibition of purified NDM-1 hydrolytic activity, UV spectrophotometry; type: biochemical
T1 construct: made in house
Excerpt: as §1
Inhibition of NDM-1 by DMSA was assessed on a purified fraction of NDM-1, obtained as previously described for NDM-4 (Nordmann et al. 2012) with imipenem 100 µM as substrate.

Kp NDM IND = test: MIC of meropenem with or without DMSA or MSA; type: cell-based, K. pneumoniae
Procedure: (§3) MICs of meropenem with of without DMSA or MSA Table 3
(§4) DMSA and MSA were used at a concentration of 3 mM each. A negative control was used as strain KpC3 producing the non- metallo carbapenemase KPC

Kp NDM KIE = test: MIC of meropenem with or without DMSA or MSA; type: cell-based, K. pneumoniae
Procedure: as §3, §4

Kp VIM KOW1 = test: MIC of meropenem with or without DMSA or MSA; type: cell-based, K. pneumoniae
Procedure: as §3, §4

E. coli NDM CHAN = test: MIC of meropenem with or without DMSA or MSA; type: cell-based
Procedure: (§5) DMSA reduced the MICs of ertapenem for bacteria producing NDM-1 though the synergy effect was weaker than that observed for bacteria producing IMP and VIM-type MBLs.
as §3, §4

E. coli NDM FEK = test: MIC of meropenem with or without DMSA or MSA; type: cell-based
Procedure: as §5, §3, §4

E. coli NDM pCR2.1 = test: MIC of meropenem with or without DMSA or MSA; type: cell-based
Procedure: as §5, §3, §4

E. coli VIM KOW7 = test: MIC of meropenem with or without DMSA or MSA; type: cell-based
Procedure: as §5, §3, §4

Kp C3 KPC-3 = test: MIC of meropenem with or without DMSA or MSA (negative control strain, non-metallo carbapenemase KPC); type: cell-based, K. pneumoniae; conditions: Kp C3 KPC-3 (negative control)
Procedure: as §3, §4

IMP-like producers = test: MIC of carbapenems, summary over IMP producers (n=9); type: cell-based
Procedure: (§6) The strains were as follows: VIM producers (n=10), IMP producers (n=9), NDM-1 producers (n=10). The selected concentration of DMSA was 10-fold (0.3 mM) and 100-fold (3 mM) that of the human peak serum concentration after oral administration (Asiedu et al;, 1995), and that of Ca-EDTA was assayed at the fixed concentration of 0.2 mM (Table 2). The MICs of carbapenems varied widely among isolates producing a same carbapenemase type. DMSA at 3 mM lowered the MICs of imipenem and ertapenem of IMP-like producers (100% of the tested isolates), and VIM-like producers (70 to 80 % of the tested isolates). […]

NDM-like producers = test: MIC of carbapenems, summary over NDM producers (n=10); type: cell-based; conditions: DMSA at 3 mM
Procedure: as §6

[3] = after a single oral dose of DMSA (10 mg); cited from earlier work
IMP-1 = IMP-1 (Serratia marcescens, UniProt P52699); conditions: 20 microM; cited from earlier work
E. cloacae 1008029 = test: MIC of carbapenems with or without DMSA; type: cell-based; conditions: E. cloacae 1008029, VIM-1 + CTX-M-3; no DMSA
Procedure: (§7) Minimum inhibitory concentrations (MICs) of carbapenems were determined in-vitro with strains (reference and clinical) producing the three main types of class B carbapenemases which are IMP, VIM and NDM, with or without EDTA and DMSA.
(§8) MICs of imipenem was determined for E. coli TOP10 pCR2.1-(PNDM-1-blaNDM-1-bleMBL) in the presence of 0, 0.01, 0.1 or 1 mg/ml of Ca-EDTA or DMSA by using the broth microdilution method in zinc-complemented M9CA minimum medium (SD7025, Euromedex, France).
as §2
(§9) The strains were as follows: VIM producers (n=10), IMP producers (n=9), NDM-1 producers (n=10). The selected concentration of DMSA was 10-fold (0.3 mM) and 100-fold (3 mM) that of the human peak serum concentration after oral administration (Asiedu et al;, 1995), and that of Ca-EDTA was assayed at the fixed concentration of 0.2 mM (Table 2). […]

E. cloacae 1008085 = test: MIC of carbapenems with or without DMSA; type: cell-based; conditions: E. cloacae 1008085, IMP-1; no DMSA
Procedure: as §7, §8, §2, §9

E. cloacae 1008183 = test: MIC of carbapenems with or without DMSA; type: cell-based; conditions: E. cloacae 1008183, IMP-1; no DMSA
Procedure: as §7, §8, §2, §9

E. cloacae 1008186 = test: MIC of carbapenems with or without DMSA; type: cell-based; conditions: E. cloacae 1008186, IMP-1; no DMSA
Procedure: as §7, §8, §2, §9

E. cloacae 396715 = test: MIC of carbapenems with or without DMSA; type: cell-based; conditions: E. cloacae 396715, VIM-1; no DMSA
Procedure: as §7, §8, §2, §9

E. cloacae TAW = test: MIC of carbapenems with or without DMSA; type: cell-based; conditions: IMP-8, no DMSA
Procedure: as §7, §8, §2, §9

E. coli 0404018 = test: MIC of carbapenems with or without DMSA; type: cell-based; conditions: E. coli 0404018, VIM-1 + CMY-6; no DMSA
Procedure: as §7, §8, §2, §9

E. coli 1008077 = test: MIC of carbapenems with or without DMSA; type: cell-based; conditions: E. coli 1008077, VIM-1 + TEM-3; no DMSA
Procedure: as §7, §8, §2, §9

E. coli 1108013 = test: MIC of carbapenems with or without DMSA; type: cell-based; conditions: E. coli 1108013, IMP-1 + TEM-1; no DMSA
Procedure: as §7, §8, §2, §9

E. coli 162 = test: MIC of carbapenems with or without DMSA; type: cell-based; conditions: E. coli 162, NDM-5 + TEM-1 +CTX-M-15; no DMSA
Procedure: as §7, §8, §2, §9

E. coli 405 = test: MIC of carbapenems with or without DMSA; type: cell-based; conditions: E. coli 405, NDM-5 + TEM-1 +CTX-M-15; no DMSA
Procedure: as §7, §8, §2, §9

E. coli BOUN = test: MIC of carbapenems with or without DMSA; type: cell-based; conditions: NDM-4 + OXA-1, no DMSA
Procedure: as §7, §8, §2, §9

E. coli COUP = test: MIC of carbapenems with or without DMSA; type: cell-based; conditions: NDM-7 + OXA-1 +CTX-M-15, no DMSA
Procedure: as §7, §8, §2, §9

E. coli DIH = test: MIC of carbapenems with or without DMSA; type: cell-based; conditions: VIM-19, no DMSA
Procedure: as §7, §8, §2, §9

E. coli IBIS = test: MIC of carbapenems with or without DMSA; type: cell-based; conditions: VIM-4, no DMSA, unit assumed
Procedure: as §7, §8, §2, §9

E. coli IR5 = test: MIC of carbapenems with or without DMSA; type: cell-based; conditions: E. coli IR5, NDM-1 + TEM-1 +CTX-M-15; no DMSA
Procedure: as §7, §8, §2, §9

E. coli JAP = test: MIC of carbapenems with or without DMSA; type: cell-based; conditions: IMP-1, no DMSA
Procedure: as §7, §8, §2, §9

E. coli MAD = test: MIC of carbapenems with or without DMSA; type: cell-based; conditions: VIM-1 + CTX-M-3, no DMSA
Procedure: as §7, §8, §2, §9

K.p. 0709124 = test: MIC of carbapenems with or without DMSA; type: cell-based, K. pneumoniae; conditions: K.p. 0709124, IMP-1b + TEM-15; no DMSA
Procedure: as §7, §8, §2, §9

K.p. 6852 = test: MIC of carbapenems with or without DMSA; type: cell-based, K. pneumoniae; conditions: K.p. 6852, IMP-1 + SHV-5; no DMSA
Procedure: as §7, §8, §2, §9

K.p. ROUM = test: MIC of carbapenems with or without DMSA; type: cell-based, K. pneumoniae; conditions: VIM, no DMSA
Procedure: as §7, §8, §2, §9

K.p. TAW = test: MIC of carbapenems with or without DMSA; type: cell-based, K. pneumoniae; conditions: IMP-8 + SHV-5, no DMSA
Procedure: as §7, §8, §2, §9

NDM-1 [4] = molecular target: T1, NDM-1; conditions: affinity for NDM-1; cited from earlier work
[5] = Klebsiella pneumoniae, without DMSA or MSA
[6] = Escherichia coli, without DMSA or MSA

T1 sequence (C7C422 29-270, looked up): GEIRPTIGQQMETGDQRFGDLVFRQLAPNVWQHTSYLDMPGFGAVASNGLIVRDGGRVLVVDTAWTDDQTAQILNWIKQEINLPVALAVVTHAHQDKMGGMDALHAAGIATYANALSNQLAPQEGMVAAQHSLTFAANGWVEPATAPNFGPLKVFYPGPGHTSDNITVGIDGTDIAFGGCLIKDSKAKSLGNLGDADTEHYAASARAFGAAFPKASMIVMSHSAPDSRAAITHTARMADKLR
IMP-1, sequence (P52699 19-246 limits assumed): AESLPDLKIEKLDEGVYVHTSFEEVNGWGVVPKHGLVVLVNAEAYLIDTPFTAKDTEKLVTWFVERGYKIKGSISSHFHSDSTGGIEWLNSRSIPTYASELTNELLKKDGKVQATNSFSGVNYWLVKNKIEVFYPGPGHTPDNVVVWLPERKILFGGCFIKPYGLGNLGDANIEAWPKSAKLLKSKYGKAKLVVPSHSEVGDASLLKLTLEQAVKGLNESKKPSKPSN

## O=C(O)[C@@H](S)[C@@H](S)C(=O)O [DMSA, meso-2,3-dimercaptosuccinic acid]
[1]; DMSA 0 mg/ml (imipenem alone)
  MIC of imipenem: 12 mg/L
[1]; DMSA 0.01 mg/ml
  MIC of imipenem: 12 mg/L
[1]; DMSA 0.1 mg/ml
  MIC of imipenem: 12 mg/L
[1]; DMSA 1 mg/ml
  MIC of imipenem: 0.2 mg/L
NDM-1 [2]
  IC50: 1 mM
Kp NDM IND; DMSA or MSA at 3 mM
  MIC of meropenem: 4 mg/L
Kp NDM KIE; DMSA or MSA at 3 mM
  MIC of meropenem: 0.5 mg/L
Kp VIM KOW1; DMSA or MSA at 3 mM
  MIC of meropenem: 32 mg/L
E. coli NDM CHAN; DMSA or MSA at 3 mM
  MIC of meropenem: 2 mg/L
E. coli NDM FEK; DMSA or MSA at 3 mM
  MIC of meropenem: 4 mg/L
E. coli NDM pCR2.1; E. coli NDM pCR2.1, DMSA or MSA at 3 mM
  MIC of meropenem: 8 mg/L
E. coli VIM KOW7; DMSA or MSA at 3 mM
  MIC of meropenem: 0.25 mg/L
Kp C3 KPC-3; DMSA or MSA at 3 mM
  MIC of meropenem: > 32 mg/L
IMP-like producers; DMSA 0.3 mM, IMP-like producing isolates
  effect on the MICs of carbapenems: lowered the MICs of carbapenems for most IMP-like producing isolates
IMP-like producers; DMSA at 3 mM, IMP-like producers
  tested isolates for which the MICs of imipenem and ertapenem were lowered: 100%
NDM-like producers
  effect on the MIC values of imipenem: did not significantly affect
  tested isolates for which the MICs of ertapenem were reduced: 50%
[3]
  plasma concentrations of DMSA: ca. 100 µM
IMP-1
  inhibition of IMP-1: inhibit

## C[C@@H](O)[C@H]1C(=O)N2C(C(=O)O)=C(SCCN=CN)C[C@H]12 [IPM, imipenem]
E. cloacae 1008029
  MIC: 16 mg/L
E. cloacae 1008085
  MIC: 2 mg/L
E. cloacae 1008183
  MIC: 8 mg/L
E. cloacae 1008186
  MIC: 16 mg/L
E. cloacae 396715
  MIC: 4 mg/L
E. cloacae TAW
  MIC: 4 mg/L
E. coli 0404018
  MIC: 4 mg/L
E. coli 1008077
  MIC: 32 mg/L
E. coli 1108013
  MIC: 4 mg/L
E. coli 162
  MIC: 32 mg/L
E. coli 405
  MIC: 32 mg/L
E. coli BOUN
  MIC: 2 mg/L
E. coli COUP
  MIC: 2 mg/L
E. coli DIH
  MIC: 16 mg/L
E. coli IBIS
  MIC: 1 mg/L
E. coli IR5
  MIC: 2 mg/L
E. coli JAP
  MIC: 0.25 mg/L
E. coli MAD
  MIC: 0.25 mg/L
K.p. 0709124
  MIC: 32 mg/L
K.p. 6852
  MIC: > 32 mg/L
K.p. ROUM
  MIC: 32 mg/L
K.p. TAW
  MIC: 4 mg/L

## CC/C(C(=O)O)=C(\CC)C(=O)O [ME1071]
NDM-1 [4]
  Ki: 24 mM

## C[C@@H](O)[C@H]1C(=O)N2C(C(=O)O)=C(S[C@@H]3CN[C@H](C(=O)N(C)C)C3)[C@H](C)[C@H]12 [meropenem]
Kp NDM IND; [5]
  MIC: 4 mg/L
Kp NDM KIE; [5]
  MIC: 4 mg/L
Kp VIM KOW1; Klebsiella pneumoniae, VIMKOW1, without DMSA or MSA
  MIC: > 32 mg/L
E. coli NDM CHAN; [6]
  MIC: 3 mg/L
E. coli NDM FEK; [6]
  MIC: 6 mg/L
E. coli NDM pCR2.1; Escherichia coli, NDMPCR2.1, read-out: MIC of meropenem
  MIC: > 32 mg/L
E. coli VIM KOW7; Escherichia coli, VIMKOW7, without DMSA or MSA
  MIC: 0.5 mg/L
Kp C3 KPC-3; Klebsiella pneumoniae, C3KPC3, without DMSA or MSA
  MIC: > 32 mg/L
